From ChEMBL document CHEMBL1201862, “PubChem BioAssay data set” (2004)
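Each compound was tested at five concentrations against cells in 96-well plates for 48 hours. GI50 is the concentration that inhibits growth by half.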 The source made the active and inactive calls. Rule as the data show it: active = GI50 up to about 1.1 µM and inactive = higher.

Assays:
Test in all cases: NCI-60 cell line screen, 48 h
[1] = test system: DU-145
[2] = test system: A549
[3] = test system: LOX IMVI
[4] = test system: HCT-116
[5] = test system: SF-268
[6] = test system: HT-29
[7] = test system: EKVX
[8] = test system: HCT-15
[9] = test system: MOLT-4
[10] = test system: UO-31
[11] = test system: SNB-19
[12] = test system: SR
[13] = test system: NCI-H460
[14] = test system: SK-MEL-28
[15] = test system: TK-10
[16] = test system: A498
[17] = test system: HL-60
[18] = test system: OVCAR-8
[19] = test system: SF-295
[20] = test system: SN12C

| Compound | GI50 [1] | GI50 [2] | GI50 [3] | GI50 [4] | GI50 [5] | GI50 [6] | GI50 [7] | GI50 [8] | GI50 [9] | GI50 [10] | GI50 [11] | GI50 [12] | GI50 [13] | GI50 [14] | GI50 [15] | GI50 [16] | GI50 [17] | GI50 [18] | GI50 [19] | GI50 [20] |
| --- | --- | --- | --- | --- | --- | --- | --- | --- | --- | --- | --- | --- | --- | --- | --- | --- | --- | --- | --- | --- |
| Cn1cc(C(=O)c2nccc3c2cnc2ccccc23)ccc1=O | > 100 µM (inactive) | 56.1 µM (inactive) | > 100 µM (inactive) | 31.9 µM (inactive) | > 100 µM (inactive) | > 100 µM (inactive) | > 100 µM (inactive) | > 100 µM | > 100 µM (inactive) | 32.1 µM (inactive) | > 100 µM (inactive) | 8.17 µM (inactive) | 26.5 µM (inactive) | > 100 µM (inactive) | > 100 µM (inactive) | > 100 µM (inactive) | > 100 µM (inactive) | > 100 µM (inactive) | > 100 µM (inactive) | 59.3 µM (inactive) |
| CCCCCCCCCCCCCCCCOCC(O)CO (configuration not stated) | 18.9 µM (inactive) | 20.1 µM (inactive) | 17.8 µM (inactive) | 19.4 µM (inactive) | 17.1 µM (inactive) | 17.3 µM (inactive) | 18.2 µM (inactive) | 18.7 µM | 13.3 µM (inactive) | 17.1 µM (inactive) | 24 µM (inactive) | 10.3 µM (inactive) | 19.9 µM (inactive) | 18.6 µM (inactive) | 15.2 µM (inactive) | 19.5 µM (inactive) | 7.18 µM (inactive) | 17.9 µM (inactive) | 16.4 µM (inactive) | 19.2 µM (inactive) |
| Cc1ccc(C(=O)N/N=C(\N=N\c2cccc([N+](=O)[O-])c2)c2ccc(N(CCC#N)CCC#N)cc2C)cc1 | 29 µM (inactive) | 31.9 µM (inactive) | 24.5 µM (inactive) | 28.4 µM (inactive) | 33.6 µM (inactive) | 29.2 µM (inactive) | 25.5 µM (inactive) | 30.8 µM | 24 µM (inactive) | 39.5 µM (inactive) | 53.7 µM (inactive) | 21.6 µM (inactive) | 29 µM (inactive) | > 46.8 µM (inactive) | 45.1 µM (inactive) | 25.8 µM (inactive) | 12.9 µM (inactive) | 23.2 µM (inactive) | 26.9 µM (inactive) | 46.6 µM (inactive) |
| Cc1c(Cl)nc(Cl)nc1Cl | 3.63 µM (inactive) | 2.69 µM (inactive) | 0.373 µM (active) | 1.14 µM (inactive) | 1.73 µM (inactive) | 0.818 µM (active) | 1.9 µM (inactive) | 0.287 µM | 0.321 µM (active) | 0.409 µM (active) | 3.81 µM (inactive) | 0.434 µM (active) | 5.71 µM (inactive) | 3.18 µM (inactive) | 3.51 µM (inactive) | 3.8 µM (inactive) | 1.94 µM (inactive) | 2.48 µM (inactive) | 5.7 µM (inactive) | 2.69 µM (inactive) |
| O=C(Cn1cc(Br)c(=O)[nH]c1=O)c1ccc(-c2ccccc2)cc1 | > 16.1 µM (inactive) | > 17.4 µM (inactive) | > 15.4 µM (inactive) | > 16 µM (inactive) | 4.71 µM (inactive) | > 17 µM (inactive) | 60 µM (inactive) | 7.67 µM | > 13 µM (inactive) | > 100 µM (inactive) | 2.25 µM (inactive) | > 17 µM (inactive) | > 15.9 µM (inactive) | > 14.3 µM (inactive) | > 30.8 µM (inactive) | > 100 µM (inactive) | > 17.4 µM (inactive) | 6.76 µM (inactive) | 10.9 µM (inactive) | 16.1 µM (inactive) |
| C=C[C@H]1CN2CCc3c([nH]c4c([C@@H]5CCCN5C)c(O)ccc34)[C@@H]2C[C@@H]1C[C@H]1c2[nH]c3ccccc3c2CCN1C | 1.48 µM (inactive) | 0.764 µM (active) | 0.179 µM (active) | 0.239 µM (active) | 1.48 µM (inactive) | 1.4 µM (inactive) | 1.58 µM (inactive) | 1.02 µM | 0.316 µM (active) | 1.08 µM (active) | 1.3 µM (inactive) | 0.253 µM (active) | 1.49 µM (inactive) | 1.55 µM (inactive) | 1.59 µM (inactive) | 1.63 µM (inactive) | 0.409 µM (active) | 1.69 µM (inactive) | 1.01 µM (active) | 1.54 µM (inactive) |
| S=C(NCc1ccccn1)N/N=C/c1ccccn1 | 0.268 µM (active) | < 0.0188 µM (active) | < 0.0167 µM (active) | < 0.01 µM (active) | 0.0214 µM (active) | – | < 0.0194 µM (active) | < 0.01 µM | < 0.01 µM (active) | < 0.0331 µM (active) | 0.726 µM (active) | < 0.01 µM (active) | 0.0556 µM (active) | 0.518 µM (active) | 0.0195 µM (active) | < 0.0113 µM (active) | < 0.01 µM (active) | < 0.032 µM (active) | 0.0482 µM (active) | 0.0724 µM (active) |
| CCCCCCC/C=C1\CCC(CN(C)C)C1=O (configuration not stated) | 14.7 µM (inactive) | 22.6 µM (inactive) | 6.85 µM (inactive) | 7.23 µM (inactive) | 17.4 µM (inactive) | 14.6 µM (inactive) | 15.5 µM (inactive) | 8.36 µM | 2.47 µM (inactive) | 15.6 µM (inactive) | 16.9 µM (inactive) | 3.47 µM (inactive) | 19.1 µM (inactive) | 16.9 µM (inactive) | 7.48 µM (inactive) | 19.9 µM (inactive) | 3.02 µM (inactive) | 9.77 µM (inactive) | 16.3 µM (inactive) | 9.1 µM (inactive) |
| CCOP(=O)(CCCC(O)CNc1nc(N)nc(Cl)c1/N=N/c1ccc(Cl)cc1)OCC (configuration not stated) | 6.14 µM (inactive) | 10.6 µM (inactive) | 3.75 µM (inactive) | 8.28 µM (inactive) | 4.27 µM (inactive) | 9.73 µM (inactive) | 3.63 µM (inactive) | 6.28 µM | 3.24 µM (inactive) | 3.56 µM (inactive) | 10.6 µM (inactive) | 2.64 µM (inactive) | 11.1 µM (inactive) | 8.22 µM (inactive) | 3.67 µM (inactive) | 6.7 µM (inactive) | 1.75 µM (inactive) | 8.47 µM (inactive) | 7.46 µM (inactive) | 5.15 µM (inactive) |
| N=C(N)NS(=O)(=O)c1ccc(Nc2c3ccccc3nc3c(C(=O)NCCO)cccc23)cc1 | 0.214 µM (active) | 0.157 µM (active) | 0.143 µM (active) | 0.223 µM (active) | 0.171 µM (active) | 0.16 µM (active) | 0.248 µM (active) | 0.236 µM | 0.0885 µM (active) | 0.175 µM (active) | 0.221 µM (active) | 0.136 µM (active) | 0.127 µM (active) | 0.248 µM (active) | 0.281 µM (active) | 0.13 µM (active) | 0.293 µM (active) | 0.185 µM (active) | 0.263 µM (active) | 0.202 µM (active) |
| CN(C)CCOc1ccc2[nH]c(C(=O)N3CC(CCl)c4c3cc(N)c3ccccc43)cc2c1 (configuration not stated) | < 0.01 µM (active) | < 0.01 µM (active) | < 0.01 µM (active) | < 0.01 µM (active) | < 0.01 µM (active) | < 0.01 µM (active) | < 0.01 µM (active) | < 0.01 µM | < 0.01 µM (active) | < 0.01 µM (active) | < 0.01 µM (active) | < 0.01 µM (active) | < 0.01 µM (active) | < 0.01 µM (active) | < 0.01 µM (active) | < 0.01 µM (active) | < 0.01 µM (active) | < 0.01 µM (active) | < 0.01 µM (active) | < 0.01 µM (active) |
| O=C(NCCNCCCNC(=O)c1cc(-c2ccccc2)nc2ccccc12)c1cccc(OCc2ccccc2)c1OCc1ccccc1 | 1.81 µM (inactive) | 1.74 µM (inactive) | 1.57 µM (inactive) | 1.71 µM (inactive) | 1.88 µM (inactive) | 1.63 µM (inactive) | 1.69 µM (inactive) | 1.74 µM | 1.85 µM (inactive) | 1.66 µM (inactive) | 1.78 µM (inactive) | 0.889 µM (active) | 2.13 µM (inactive) | 1.81 µM (inactive) | 1.77 µM (inactive) | 1.6 µM (inactive) | 1.6 µM (inactive) | 1.71 µM (inactive) | 1.64 µM (inactive) | 1.77 µM (inactive) |
| O=S(=O)(OI(O)CC(F)(F)F)C(F)(F)F | > 100 µM (inactive) | > 100 µM (inactive) | > 100 µM (inactive) | > 100 µM (inactive) | > 100 µM (inactive) | > 100 µM (inactive) | > 100 µM (inactive) | > 100 µM | > 100 µM (inactive) | > 100 µM (inactive) | – | > 100 µM (inactive) | > 100 µM (inactive) | > 100 µM (inactive) | > 100 µM (inactive) | > 100 µM (inactive) | > 100 µM (inactive) | > 100 µM (inactive) | > 100 µM (inactive) | > 100 µM (inactive) |
| Brc1sc(Br)c2c1[C@H](Br)C[C@@H]2Br | 24.3 µM (inactive) | 30 µM (inactive) | 17.4 µM (inactive) | 37.2 µM (inactive) | 20.7 µM (inactive) | > 100 µM (inactive) | > 100 µM (inactive) | 28.4 µM | 8.97 µM (inactive) | 19.6 µM (inactive) | – | 22.4 µM (inactive) | 27.5 µM (inactive) | 28 µM (inactive) | > 100 µM (inactive) | 40.3 µM (inactive) | 30.7 µM (inactive) | 21.6 µM (inactive) | > 10 µM (inactive) | 31.1 µM (inactive) |
